How the values were obtained:
[1] = test system: HL-60; assay: Growth inhibition of human HL60 cells by MTT assay; assay type: functional, cell-based
[2] = test system: HeLa; assay: Growth inhibition of human HeLa cells by MTT assay; assay type: functional, cell-based
[3] = test system: SMMC-7721; assay: Growth inhibition of human SMMC7721 cells by MTT assay; assay type: functional, cell-based
[4] = test system: A549; assay: Growth inhibition of human A549 cells by SRB assay; assay type: functional, cell-based
[5] = test system: P388; assay: Growth inhibition of mouse P388 cells by MTT assay; assay type: functional, cell-based
[6] = test system: DNA; assay: Binding affinity to calf thymus DNA; assay type: nucleic-acid assay; settings: Bos taurus

CN(C)CCN1C(=O)c2cccc3cc(N)cc(c23)C1=O [AMONAFIDE]
IC50 [1]: 1.63 µM
IC50 [2]: 1.4 µM
IC50 [3]: 4.15 µM
IC50 [4]: 13 µM
IC50 [5]: 4.56 µM

CN(C)CCN1C(=O)c2cccc3c2c(cc2[nH]c(-c4ccncc4)nc23)C1=O
IC50 [1]: 2.66 µM
IC50 [2]: 5.35 µM
IC50 [3]: 1.76 µM
IC50 [4]: 60.9 µM
IC50 [5]: 5.65 µM
ΔTm [6]: 4.8 °C

CN(C)CCN1C(=O)c2cccc3c2c(cc2[nH]c(-c4ccc(O)cc4)nc23)C1=O
IC50 [1]: 23 µM
IC50 [2]: 13.1 µM
IC50 [3]: > 100 µM
IC50 [4]: 17.8 µM
IC50 [5]: 1.1 µM
ΔTm [6]: 6.3 °C

CN(C)CCN1C(=O)c2cccc3c2c(cc2[nH]c(-c4ccccn4)nc23)C1=O
IC50 [1]: 0.3 µM
IC50 [2]: 2.71 µM
IC50 [3]: 3.36 µM
IC50 [4]: 9.33 µM
IC50 [5]: 0.77 µM
ΔTm [6]: 3.8 °C

COc1ccc(-c2nc3c(cc4c5c(cccc53)C(=O)N(CCN(C)C)C4=O)[nH]2)cc1OC
IC50 [1]: 10.4 µM
IC50 [2]: 5.19 µM
IC50 [3]: 0.22 µM
IC50 [4]: 0.6 µM
IC50 [5]: 1.07 µM
ΔTm [6]: 13.3 °C

CN(C)CCN1C(=O)c2cccc3c2c(cc2[nH]c(-c4ccsc4)nc23)C1=O
IC50 [1]: 0.58 µM
IC50 [2]: 0.54 µM
IC50 [3]: 0.93 µM
IC50 [4]: 8.59 µM
IC50 [5]: 0.16 µM
ΔTm [6]: 8.4 °C

CN(C)CCN1C(=O)c2cccc3c2c(cc2[nH]c(-c4ccc(N(C)C)cc4)nc23)C1=O
IC50 [1]: 1.08 µM
IC50 [2]: 0.25 µM
IC50 [3]: 2.86 µM
IC50 [4]: 8.5 µM
IC50 [5]: 1.68 µM
ΔTm [6]: 12.1 °C

CN(C)CCN1C(=O)c2cccc3c2c(cc2[nH]c(-c4ccccc4)nc23)C1=O
IC50 [1]: 0.86 µM
IC50 [2]: 0.4 µM
IC50 [3]: 3.36 µM
IC50 [4]: 7.54 µM
IC50 [5]: 0.86 µM
ΔTm [6]: 7.2 °C

CN(C)CCN1C(=O)c2cccc3c2c(cc2[nH]c(-c4cccnc4)nc23)C1=O
IC50 [1]: 1.33 µM
IC50 [2]: 1.16 µM
IC50 [3]: 1.29 µM
IC50 [4]: 9.97 µM
IC50 [5]: 2.31 µM
ΔTm [6]: 4 °C

CN(C)CCN1C(=O)c2cccc3c2c(cc2[nH]c(-c4ccc(C(F)(F)F)cc4)nc23)C1=O
IC50 [1]: 4.9 µM
IC50 [2]: 0.4 µM
IC50 [3]: 1.63 µM
IC50 [4]: 26.2 µM
IC50 [5]: 0.71 µM
ΔTm [6]: 4.8 °C

CN(C)CCN1C(=O)c2cccc3c2c(cc2[nH]c(-c4cccs4)nc23)C1=O
IC50 [1]: 0.59 µM
IC50 [2]: 1.34 µM
IC50 [3]: 3.27 µM
IC50 [4]: 6.67 µM
IC50 [5]: 4.15 µM
ΔTm [6]: 6.9 °C

CCOc1ccc(-c2nc3c(cc4c5c(cccc53)C(=O)N(CCN(C)C)C4=O)[nH]2)cc1
IC50 [1]: 4.58 µM
IC50 [2]: 0.52 µM
IC50 [3]: 1.02 µM
IC50 [4]: 14.7 µM
IC50 [5]: 2.48 µM
ΔTm [6]: 10.5 °C

Cc1ccc(-c2nc3c(cc4c5c(cccc53)C(=O)N(CCN(C)C)C4=O)[nH]2)cc1
IC50 [1]: 1.04 µM
IC50 [2]: 0.32 µM
IC50 [3]: 0.58 µM
IC50 [4]: 5.53 µM
IC50 [5]: 5.5 µM
ΔTm [6]: 6.6 °C

CN(C)CCN1C(=O)c2cccc3c2c(cc2[nH]c(-c4cccn4C)nc23)C1=O
IC50 [1]: 3.66 µM
IC50 [2]: 7.98 µM
IC50 [3]: 2.9 µM
IC50 [4]: 0.41 µM
IC50 [5]: 0.21 µM
ΔTm [6]: 6.2 °C

CN(C)CCN1C(=O)c2cccc3c2c(cc2[nH]c(-c4ccco4)nc23)C1=O
IC50 [1]: 6.24 µM
IC50 [2]: 1.73 µM
IC50 [3]: 1.3 µM
IC50 [4]: 7.23 µM
IC50 [5]: 0.65 µM
ΔTm [6]: 6.8 °C

CN(C)CCN1C(=O)c2cccc3c2c(cc2[nH]c(-c4ccc(Cl)cc4)nc23)C1=O
IC50 [1]: 3.28 µM
IC50 [2]: 0.28 µM
IC50 [3]: 0.27 µM
IC50 [4]: 9.13 µM
IC50 [5]: 0.95 µM
ΔTm [6]: 7.1 °C

CN(C)CCN1C(=O)c2cccc3c2c(cc2[nH]c(-c4ccoc4)nc23)C1=O
IC50 [1]: 5.21 µM
IC50 [2]: 13.9 µM
IC50 [3]: 0.88 µM
IC50 [4]: 7.48 µM
IC50 [5]: 0.71 µM
ΔTm [6]: 6.7 °C

COc1cc(-c2nc3c(cc4c5c(cccc53)C(=O)N(CCN(C)C)C4=O)[nH]2)ccc1O
IC50 [1]: 50.5 µM
IC50 [2]: > 100 µM
IC50 [3]: > 100 µM
IC50 [4]: 5.08 µM
IC50 [5]: 1.92 µM
ΔTm [6]: 7.8 °C

CN(C)CCN1C(=O)c2cccc3c2c(cc2[nH]c(-c4ccc[nH]4)nc23)C1=O
IC50 [1]: 3.03 µM
IC50 [2]: 3.3 µM
IC50 [3]: 2.99 µM
IC50 [4]: 0.45 µM
IC50 [5]: 0.21 µM
ΔTm [6]: 5.7 °C

COc1ccc(-c2nc3c(cc4c5c(cccc53)C(=O)N(CCN(C)C)C4=O)[nH]2)cc1
IC50 [1]: 0.46 µM
IC50 [2]: 0.21 µM
IC50 [3]: 1.35 µM
IC50 [4]: 2.16 µM
IC50 [5]: 3.72 µM
ΔTm [6]: 7 °C
